In the supplement of paper PMC10307832:

Key:
Experiment in all cases: relative viability (nuclei count vs DMSO), 5 days (fraction); higher = more cells survive
Doramapimod + Pictilisib = compound: Cc1ccc(-n2nc(C(C)(C)C)cc2NC(=O)Nc2ccc(OCCN3CCOCC3)c3ccccc23)cc1 [Doramapimod] + CS(=O)(=O)N1CCN(Cc2cc3nc(-c4cccc5[nH]ncc45)nc(N4CCOCC4)c3s2)CC1 [Pictilisib] (partner 1 µM)
Method in brief: (§1)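 Five library-drug doses in √10 steps were combined with a fixed anchor-drug dose, or a single drug was given alone, by pin tool to lung cancer cell lines in 1536-well plates the day after seeding. Nuclei were stained and counted after 5 days. Relative viability is the nuclei count in treated wells over that in vehicle wells, taken as the median of duplicate plates.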

RAF265 + Pemetrexed = compound: Cn1c(Nc2ccc(C(F)(F)F)cc2)nc2cc(Oc3ccnc(-c4ncc(C(F)(F)F)[nH]4)c3)ccc21 [RAF265] + Nc1nc2[nH]cc(CCc3ccc(C(=O)N[C@@H](CCC(=O)O)C(=O)O)cc3)c2c(=O)[nH]1 [Pemetrexed] (partner 0.2 µM)
Method in brief: as §1

RAF265 + Palbociclib = compound: Cn1c(Nc2ccc(C(F)(F)F)cc2)nc2cc(Oc3ccnc(-c4ncc(C(F)(F)F)[nH]4)c3)ccc21 [RAF265] + CC(=O)c1c(C)c2cnc(Nc3ccc(N4CCNCC4)cn3)nc2n(C2CCCC2)c1=O [Palbociclib] (partner 0.5 µM)
Method in brief: as §1

Doramapimod + Linsitinib = compound: Cc1ccc(-n2nc(C(C)(C)C)cc2NC(=O)Nc2ccc(OCCN3CCOCC3)c3ccccc23)cc1 [Doramapimod] + C[C@]1(O)C[C@@H](c2nc(-c3ccc4ccc(-c5ccccc5)nc4c3)c3c(N)nccn32)C1 [Linsitinib] (partner 1 µM)
Method in brief: as §1

Cell Line	relative viability (Doramapimod + Pictilisib; first compound 0.02 µM)	relative viability (Doramapimod + Pictilisib; first compound 0.06325 µM)	relative viability (Doramapimod + Pictilisib; first compound 0.2 µM)	relative viability (Doramapimod + Pictilisib; first compound 0.6325 µM)	relative viability (Doramapimod + Pictilisib; first compound 2 µM)	relative viability (RAF265 + Pemetrexed; first compound 0.01 µM)	relative viability (RAF265 + Pemetrexed; first compound 0.03162 µM)	relative viability (RAF265 + Pemetrexed; first compound 0.1 µM)	relative viability (RAF265 + Pemetrexed; first compound 0.3162 µM)	relative viability (RAF265 + Pemetrexed; first compound 1 µM)	relative viability (RAF265 + Palbociclib; first compound 0.01 µM)	relative viability (RAF265 + Palbociclib; first compound 0.03162 µM)	relative viability (RAF265 + Palbociclib; first compound 0.1 µM)	relative viability (RAF265 + Palbociclib; first compound 0.3162 µM)	relative viability (RAF265 + Palbociclib; first compound 1 µM)	relative viability (Doramapimod + Linsitinib; first compound 0.02 µM)	relative viability (Doramapimod + Linsitinib; first compound 0.06325 µM)	relative viability (Doramapimod + Linsitinib; first compound 0.2 µM)	relative viability (Doramapimod + Linsitinib; first compound 0.6325 µM)	relative viability (Doramapimod + Linsitinib; first compound 2 µM)
RERF-LC-KJ	0.569	0.536	0.56	0.581	0.55	0.504	0.482	0.503	0.46	0.51	1.06	1.23	1.05	0.885	0.832	0.871	0.912	0.899	0.952	0.864
NCI-H322M	0.902	0.501	0.577	0.585	0.479	0.587	0.605	0.472	0.357	0.335	0.474	0.498	0.425	0.381	0.326	0.851	0.834	0.909	1.01	0.874
COR-L 105	0.425	0.344	0.374	0.426	0.379	1.27	0.941	1.31	0.714	0.685	0.425	0.36	0.385	0.371	0.358	0.968	0.94	0.853	1.01	0.735
NCI-H1993	0.85	0.97	0.825	0.728	0.906	0.548	0.605	0.508	0.51	0.581	0.584	0.595	0.661	0.575	0.507	0.663	0.708	0.795	0.753	0.755
NCI-H1437	0.453	0.411	0.37	0.596	0.415	0.346	0.296	0.326	0.285	0.278	0.318	0.315	0.305	0.366	0.306	1.03	0.982	0.968	1.17	0.947
NCI-H838	0.415	0.485	0.439	0.552	0.467	0.269	0.269	0.265	0.299	0.237	0.203	0.222	0.193	0.176	0.154	0.9	1.04	1.02	1.1	0.994
NCI-H1666	0.502	0.397	0.37	0.369	0.312	0.787	0.782	0.904	0.888	0.754	0.612	0.577	0.595	0.663	0.585	0.871	0.883	0.847	0.781	0.738
NCI-H1944	0.319	0.378	0.339	0.372	0.322	0.849	0.859	0.632	0.405	0.472	0.356	0.367	0.291	0.261	0.185	1.05	1.14	1.03	1.31	1.08
NCI-H2023	0.25	0.195	0.195	0.152	0.213	0.21	0.251	0.21	0.251	0.236	0.411	0.34	0.37	0.291	0.268	0.626	0.718	0.533	0.738	0.575
NCI-H1755	0.364	0.382	0.455	0.447	0.393	0.771	0.361	0.503	0.519	0.497	0.385	0.445	0.462	0.414	0.309	0.982	1	1.02	1.05	0.996
NCI-H23	0.435	0.438	0.374	0.509	0.484	0.633	0.573	0.53	0.351	0.366	0.499	0.342	0.304	0.262	0.206	0.648	0.528	0.511	0.664	0.565
201T	0.696	0.662	0.668	0.863	0.609	0.352	0.316	0.344	0.311	0.313	0.344	0.326	0.369	0.377	0.338	1.05	1.07	0.971	1.03	0.958
NCI-H1734	0.418	0.356	0.352	0.466	0.325	0.386	0.43	0.469	0.507	0.417	0.384	0.319	0.324	0.286	0.221	0.864	0.755	0.721	0.767	0.662
NCI-H520	0.238	0.278	0.252	0.288	0.22	0.637	0.536	0.629	0.507	0.36	0.264	0.218	0.239	0.191	0.155	0.937	1.11	0.838	0.963	0.897
NCI-H1355	0.438	0.356	0.386	0.366	0.332	1.05	1.02	0.972	0.96	0.714	0.449	0.364	0.328	0.248	0.181	0.804	0.819	0.824	0.908	0.779
NCI-H1915	0.945	0.932	0.989	0.87	0.785	0.463	0.419	0.486	0.406	0.361	0.525	0.435	0.438	0.236	0.147	1.1	1.17	1.1	1.12	1.09
